Counter-ions that a name gives are not always drawn.
Assays:
physchem = type: physicochemical; conditions: for % Recovery, chemical stability with extraction fluid: 0.091 mg/mL; for recovery at 0.091 mg/mL: chemical stability with extraction fluid
Protocol: To validate the method of test agent recovery from the skin, solutions (1.0 mg/mL) of cholecalciferol phosphate were prepared in 100% PG and 100% water and the same concentration of cholecalciferol was prepared in 100% PG and PG:EtOH (50:50). The precise concentrations in these samples were analysed by HPLC using the method described above.
To assess the chemical stability of cholecalciferol and cholecalciferol phosphate in the donor solutions used in the Franz cell experiments, the 1.0 mg/mL of the samples prepared in the different solvents were incubated in a water bath at 37° C. for 24 h. In addition, to understand the chemical stability of cholecalciferol and cholecalciferol phosphate in the extraction solvents used in the skin deposition studies, a 1 mL of the sample of the drug in the different solvents was added into 10 mL of extraction fluid (PG:EtOH, 50:50 for cholecalciferol and MeOH:water, 90:10 for cholecalciferol phosphate). Samples with the extraction fluid were left in the water bath overnight at 37° C. and the sample concentration was analysed by HPLC method described above.

in vitro = in vitro ADME, porcine; conditions: for total penetration into / deposited in the skin: vehicle 100% PG, 0.25 mm porcine skin
Protocol: Donor solutions (2.5 mg/mL, 100,000 IU), which is an infinite dose, containing cholecalciferol and cholecalciferol phosphate disodium prepared according to Example 1, were compared to PG:EtOH (50:50) for cholecalciferol and 100% water for cholecalciferol phosphate.
The Franz diffusion cell was used to investigate the permeation of cholecalciferol and cholecalciferol phosphate through porcine skin. Fresh white adult porcine ears were obtained and any damaged ears were discarded. The ears were removed from the carcass after hair removal. The ears were washed with deionised water, the residual water on the skin surface was immediately removed by blotting with a tissue, visible hairs were trimmed carefully, and the ears were stored at −20° C. for no longer than 30 days until required. On the day of the experiment the skin was defrosted, and the subcutaneous fat was removed using a scalpel. The tissue was cut into the appropriate size sections (0.25 mm thick, 2.19±0.21 cm^2) to be mounted with the stratum corneum (SC) facing the donor compartment between donor and receiver compartments of Franz diffusion cells. The pieces of skins were sealed between the two compartments using parafilm, and 12 mm magnetic follows was placed into the receiver compartment. The receiver compartment in the Franz diffusion cell was filled with 100% PG for cholecalciferol; and a 1:1 mixture of PG: (MeOH:PBS ([…]), 90:10) for cholecalciferol phosphate (9.23±0.23 mL). The cell sealing was confirmed by cell inversion and monitoring solvent back diffusion. Sink conditions were maintained throughout the transport assays. The temperature of the Franz diffusion was maintained at 37° C. in a water bath, to set up the skin temperature 32° C. (Maddock, W. G. and Coller, F. A., ([…]) The role of the extremities in the dissipation of heat, American Journal of Physiology-Legacy Content, 106(3), 589-596). After 1 h equilibration at 37° C. in the water bath, 1 mL of receiver fluid was taken at time points 0 in 30 min and a fresh 100% PG was replaced to keep the volume content, and 1 mL of each formulation was applied in the donor compartment. After 24 h, the receiver fluid was collected and analysed by HPLC methods.
At the end of the transport studies, the Franz cells were dismantled, and the donor solution was collected into bottles containing 10 mL of extraction fluid; PG:EtOH (50:50) for cholecalciferol and MeOH:water (90:10) for cholecalciferol phosphate, by wiping the surface of the skin and inside of the donor compartment with two wet and then two dry cotton buds. The SC was removed from the epidermis by tape stripping. A 300 mg weight was used onto the skin to press the adhesive tape to apply defined pressure for 10 sec. A piece of tape that can cover the diffusion area was used to remove the SC. The first two pieces of tape were added into the donor solution, as the first 2 strips were considered as part of the applied formulation and its removal was part of the formulation wash off (Primo, F. L. et al., (2008) In vitro studies of cutaneous retention of magnetic nanoemulsion loaded with zinc phthalocyanine for synergic use in skin cancer treatment, Journal of Magnetism and Magnetic Materials, 320(14), e211-e214.; Sheth, N. V. et al., (1987) Measurement of the stratum corneum drug reservoir to predict the therapeutic efficacy of topical iododeoxyuridine for herpes simplex virus infection. Journal of investigative dermatology, 89(6), 598-602). The next 20 pieces of tapes were added into bottles containing 10 mL of extraction fluid. The epidermis was removed from the dermis and cut into small pieces by scalpels, placed in bottles containing 2 mL of extraction fluid. Furthermore, the dermis was cut into small pieces and was placed in bottles containing 2 mL of extraction fluid. […]

SMILES	% Recovery, chemical stability with extraction fluid (physchem) [%]	degradation (physchem; 24 h, 1 mg/mL) [%]	recovery at 0.091 mg/mL (physchem; % Recovery) [%]	deposition in the dermis compared with cholecalciferol (in vitro)	deposited in the skin (in vitro; pig, 24 h, 2.5 mg/mL) [μg/cm^2]	deposition in the SC (in vitro; pig, 24 h, 2.5 mg/mL) [μg/cm^2]	deposition in the epidermis (in vitro; pig, 24 h, 2.5 mg/mL) [μg/cm^2]	skin deposition, times more than the cholecalciferol (in vitro; pig, 24 h, 2.5 mg/mL) [times]	total penetration into / deposited in the skin (in vitro; 2.5 mg/mL, 24 h) [μg/cm^2]	transdermal penetration, passed all the way through the skin (in vitro; vehicle PG, 24 h)	recovery at 24 h, 1 mg/mL (physchem; % Recovery, chemical stability without extraction fluid) [%]	total recovery from the skin permeation experiments (in vitro; pig, 24 h, 2.5 mg/mL) [%]	recovery at 24 h, 2.5 mg/mL (in vitro; pig, total recovery from the skin permeation experiments) [%]	total penetration into the skin (in vitro; vehicle PG:EtOH (50:50), 24 h) [μg/cm^2]	deposition in the SC (in vitro; vehicle PG, 24 h) [μg/cm^2]	deposition in the epidermis (in vitro; vehicle PG, 24 h) [μg/cm^2]
C=C1CC[C@H](OP(=O)(O)O)C/C1=C/C=C1\CCC[C@@]2(C)C1CC[C@@H]2[C@H](C)CCCC(C)C (some centres unmarked) [Cholecalciferol phosphate disodium salt, cholecalciferol phosphate disodium salt]	76.01 ± 1.42	20	95.2 ± 5.88	not statistically different	29.59±9.44	50.15±8.20	113.96±18.79	1.97	189.99±29.10	50.50±6.40 μg/cm^2						
C=C1CC[C@H](O)C/C1=C/C=C1\CCC[C@]2(C)[C@@H]([C@H](C)CCCC(C)C)CC[C@@H]12 [Cholecalciferol, cholecalciferol, reference compound]	90.52 ± 0.42		91.76 ± 0.87						96.51±17.88	did not pass through the tissue	90	80	61	80.63±13.23	1.79±1.80	40.13±24.26
